Laboratory results as given in paper PMC2994877, “A Full Pharmacological Analysis of the Three Turkey β-Adrenoceptors and Comparison with the Human β-Adrenoceptors” (PLoS ONE, 2010).
Read-outs that look alike come from different tables or passages of the source. Marks after values point to notes of the source that are not given here.

What was measured:
[1] = target: T1, turkey β3C-adrenoceptor (tβ3C) (Meleagris gallopavo, UniProt A0A803YLI8); assay: CRE-SPAP production, CHO tβ3C cells; format: cell-based; settings: for Emax: read-out: % isop max
T1 sequence (A0A803YLI8 entry or part of it): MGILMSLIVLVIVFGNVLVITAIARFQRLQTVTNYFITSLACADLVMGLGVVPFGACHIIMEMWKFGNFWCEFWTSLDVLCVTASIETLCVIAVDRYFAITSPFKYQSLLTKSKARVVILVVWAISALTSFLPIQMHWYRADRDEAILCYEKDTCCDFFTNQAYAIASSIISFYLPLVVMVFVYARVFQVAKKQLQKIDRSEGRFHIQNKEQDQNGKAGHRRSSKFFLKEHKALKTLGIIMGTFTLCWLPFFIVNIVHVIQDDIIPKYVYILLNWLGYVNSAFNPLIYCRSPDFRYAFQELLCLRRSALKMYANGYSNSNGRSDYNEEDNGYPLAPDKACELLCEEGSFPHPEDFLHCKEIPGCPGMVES

Human β3-adrenoceptor = settings: cited from earlier work
[2] = target: T2, turkey β4C-adrenoceptor (tβ4C) (Meleagris gallopavo, UniProt P43141); assay: cell-based; format: cell-based; settings: for % isop max: CRE-SPAP, % of 10 µM isoprenaline maximum
T2 construct: expressed in transfected cells
T2 sequence (P43141 whole entry): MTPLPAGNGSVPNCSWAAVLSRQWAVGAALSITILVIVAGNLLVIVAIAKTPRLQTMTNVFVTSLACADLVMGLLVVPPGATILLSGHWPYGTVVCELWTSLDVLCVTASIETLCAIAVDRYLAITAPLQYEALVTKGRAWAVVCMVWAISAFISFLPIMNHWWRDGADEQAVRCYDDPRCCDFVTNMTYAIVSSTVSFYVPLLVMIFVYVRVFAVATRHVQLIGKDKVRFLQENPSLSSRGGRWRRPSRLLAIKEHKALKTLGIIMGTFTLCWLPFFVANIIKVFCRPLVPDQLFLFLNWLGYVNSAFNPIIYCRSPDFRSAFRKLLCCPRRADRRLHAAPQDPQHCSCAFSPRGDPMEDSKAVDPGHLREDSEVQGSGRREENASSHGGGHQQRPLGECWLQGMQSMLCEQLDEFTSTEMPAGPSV

[3] = target: T1, turkey β3C-adrenoceptor (tβ3C); assay: 3H-CGP12177 whole cell binding, CHO tβ3C cells
[4] = target: T2, turkey β4C-adrenoceptor (tβ4C); assay: cell-based; format: binding
Human β2-adrenoceptor = target: Human β2-adrenoceptor; set-up: method as in PMID 15655528, PMID 20590599; settings: Human β2, given for comparison; ref 25 and 30; cited from earlier work
Human β1-adrenoceptor = target: Human β1-adrenoceptor; set-up: method as in PMID 15655528, PMID 20590599; settings: Human β1, given for comparison; ref 25 and 30; cited from earlier work
[5] = Human β3, given for comparison, ref 25 and 30
[6] = competition with 3H-CGP12177, whole cells, CHO tβ4C, given as log KD, mean ± s.e.m.
[7] = competition with 3H-CGP12177, whole cells, CHO tβ3C, given as log KD, mean ± s.e.m.
[8] = competition with 3H-CGP12177, whole cells, CHO tβ4C, given as log KD, mean ± s.e.m., read-out: Log KD (converted)
[9] = competition with 3H-CGP12177, whole cells, CHO tβ3C, given as log KD, mean ± s.e.m., read-out: Log KD (converted)

| SMILES | Log KD (Human β3-adrenoceptor; [5]) | Kd [3] [nM] | Log KD (Human β2-adrenoceptor) | Kd [4, 8] [nM] | also measured |
| --- | --- | --- | --- | --- | --- |
| CC(C)NCC(O)c1ccc(O)c(O)c1 (stereo not shown) [Isoprenaline] | −5.52 | 316 |  |  | EC50 [1]: 26.9 nM; % isop max ([1]; CRE-SPAP, % of 10 µM isoprenaline maximum, CHO tβ3C cells): 100%; % isop max ([2]; CHO tβ4C cells): 100%; CRE-SPAP gene transcription response ([2]; tβ4C): 2.47±0.10 fold over basal |
| CCCCCCNC(=O)Nc1ccc(S(=O)(=O)Nc2ccc(CCNC[C@H](O)COc3ccc(O)cc3)cc2)cc1 [L755507] |  |  | −6.83 |  | Log KD (Human β3-adrenoceptor; Human β3, binding to site 1): −8.60 ^*; Log KD [4, 6]: −7.63±0.11; Log KD (Human β1-adrenoceptor): −6.23; Log KD [3, 7]: −6.56±0.06 |
| CC(CCc1ccccc1)NCC(O)c1ccc(O)c(C(N)=O)c1 (stereo not shown) [Labetolol] | −6.18 |  |  |  | Log KD [4, 6]: −7.70±0.04; Log KD [3, 7]: −7.42±0.04 |
| CC(C)NCC(O)c1cc(O)cc(O)c1 (stereo not shown) [Metaproterenol] | −4.06 |  | −5.30 | 7410 | Log KD (Human β1-adrenoceptor): −4.71; Kd [3, 9]: 4170 nM |
| COCCc1ccc(OCC(O)CNC(C)C)cc1 (stereo not shown) [Metoprolol] |  | 1100 |  |  | Kd [4]: 1660 nM |
| OC(CNCC(O)C1CCc2cc(F)ccc2O1)C1CCc2cc(F)ccc2O1 (stereo not shown) [Nebivolol] | −7.04 |  | −7.92 | 1.48 | Kd [3, 9]: 16.6 nM |
| CC(C)NCC(O)COc1cccc2[nH]ccc12 (stereo not shown) [Pindolol] |  | 1.95 |  | 5.25 |  |
| CC(C)NCC(O)c1ccc2ccccc2c1 (stereo not shown) [Pronethalol] | −5.89 |  |  |  | Kd [4]: 87.1 nM; Log KD (Human β1-adrenoceptor): −6.44; Kd [3, 9]: 102 nM |
| CC(CCc1ccc(O)cc1)NCC(O)c1ccc(O)cc1 (stereo not shown) [Ractopamine] | −5.82 | 224 |  | 269 | Log KD (Human β1-adrenoceptor): −6.97 |
| CC(C)OC(=O)c1cc2c(OCC(O)CNC(C)(C)C)cccc2[nH]1 (stereo not shown) [SDZ21009] | −7.10 |  | −10.28 |  | Log KD [4, 6]: −9.06±0.07; Log KD [3, 7]: −10.17±0.08 |
| CCc1ccccc1OC[C@@H](O)CN[C@H]1CCCc2ccccc21.O=C(O)C(=O)O [SR59230A, 3-(2-Ethylphenoxy)-1-[(1,S)-1,2,3,4-tetrahydronapth-1-ylamino]-2S-2-propanol oxalate] | −7.37 |  | −8.45 |  | Log KD [4, 6]: −7.65±0.06; Log KD [3, 7]: −7.96±0.08 |
| CC(C)(C)NCC(O)c1ccc(O)c(CO)c1 (stereo not shown) [Salbutamol] |  | 724 |  | 4370 | EC50 ([1]; CRE-SPAP production, CHO tβ3C cells, read-out: Log EC50 (converted)): 3.55 nM; Emax [1]: 102 ± 3.1%; EC50 ([2]; CRE-SPAP production, CHO tβ4C cells, read-out: Log EC50 (converted)): 42.7 nM; % isop max ([2]; CHO tβ4C cells): 99.9±2.3% |
| OCc1cc(C(O)CNCCCCCCOCCCCc2ccccc2)ccc1O (stereo not shown) [Salmeterol] | −6.33 | 3.16 |  |  | EC50 [1]: 0.0372 nM; Emax [1]: 96 ± 5.7%; Kd [4]: 81.3 nM; EC50 [2]: 3.98 nM; % isop max ([2]; CHO tβ4C cells): 102.5±2.8% |
| CC(C)NCC(O)c1ccc(NS(C)(=O)=O)cc1 (stereo not shown) [Sotalol] | −5.05 |  |  | 692 | Kd [3, 9]: 537 nM |
| CC(C)(C)NCC(O)c1cc(O)cc(O)c1 (stereo not shown) [Terbutaline] |  | 2400 |  | 33900 |  |
| CC(C)(C)NC[C@H](O)COc1nsnc1N1CCOCC1 [Timolol] | −6.80 |  |  | 2 |  |
| CC(C)(C)NCC(O)c1ccccc1Cl (stereo not shown) [Tulobuterol] | −4.72 | 229 | −6.83 | 3470 |  |
| O=C(NCCNCC(O)COc1ccc(O)cc1)N1CCOCC1 (stereo not shown) [Xamoterol] |  | 2290 |  |  | Kd [4]: 589 nM |
| COCCNC(=O)COc1ccc(OCCNC[C@H](O)COc2ccccc2)cc1 [ZD7114] | −6.78 |  | −7.31 |  | Log KD [4, 6]: −7.59±0.04; Log KD [3, 7]: −6.59±0.10 |
